From article PMC8308784, “Novel Purine Chemotypes with Activity against Plasmodium falciparum and Trypanosoma cruzi” (Pharmaceuticals, 2021) come the findings set out here.

Each structure is given as a SMILES string.

For one data set, the system named is Vero cells. Briefly: Vero cell toxicity assay (alamarBlue). Type of data set: cell-based, green monkey. The following applies: 4 days; minimum value of the 95% CI, except BNZ (mean (SD)). The protocol: Human erythrocytes were purified from B+ Rh+ blood samples and maintained at 4 °C in incomplete RPMI medium. Vero (green monkey kidney epithelial cells), LLC-MK2 (Rhesus monkey kidney epithelial cells), and HepG2 (human liver epithelial cells) cultures were cultivated in DMEM supplemented with 1% penicillin–streptomycin (PS) and 10% heat-inactivated fetal bovine serum (FBS) at 37 °C, 5% CO2, and >95% humidity, as described in [31]. HepG2 cells were also supplemented with 10% non-essential amino acids. Vero and MK2 cells were passaged twice per week at 1:12 ratios, while HepG2 cells were passaged at a 1:8 ratio.
Vero and HepG2 cells were detached, centrifuged, and resuspended in DMEM without phenol red. Cell viability was checked upon cell counting with trypan blue staining. Then, Vero and HepG2 cells were diluted at a concentration of 5 × 10^5 and 3.2 × 10^5 cells per mL, respectively, before adding 100 µL per well to the 96-well plate. Each run contained its own negative (untreated cells) and positive (medium alone) controls. Plates were incubated at 37 °C for 4 days in the case of Vero, or 2 in the case of HepG2 cells. Assay readout was made by adding 50 µL per well of a PBS solution containing 10% alamarBlue reagent (Thermo Fisher Scientific); then, plates were incubated for another 6 h at 37 °C, before recording the fluorescence intensity with a Tecan Infinite M Nano+ reader (excitation: 530 nm, emission: 590 nm).
(§1) Absorbance values derived from the anti-T. cruzi assays and fluorescence values from the anti-P. falciparum and cell toxicity assays were normalized to the controls. In the primary screening at three fixed doses, the compounds’ inhibitory activity was expressed as a percentage of the negative control (100% parasitic growth). In dose–response assays, the compounds’ IC50 and TC50 values were determined with GraphPad Prism 7 software (version 7.00, 2016), using a non-linear regression analysis model defined by the following equation: Y=100 ÷(1+10^((LogIC50−X)×HillSlope))

In data set [1] the test system is P. falciparum 3D7. Briefly: P. falciparum dose-response growth inhibition assay (FACS, SYTO 11). Type of data set: cell-based. Particulars: P. falciparum 3D7, 48 h, mean (SD). How it is done:
(§2) Apicomplexan parasite cultures were maintained at 3% hematocrit under an atmosphere of 37 °C in 93% N2, 5% CO2, and 2% O2, following standard methods. Synchronized cultures were obtained via 5% sorbitol lysis.
(§3) P. falciparum growth was primarily analyzed under 3 different concentrations (100, 10, and 1 mM) of the 81 compounds. Conditions were tested in triplicate for every concentration, and the test was repeated when the standard deviation was above 10% for any concentration. Z-values varied between 0.83 and 0.98 in the different plates analyzed. Selected compounds (12.3% potential hit rate) were further analyzed via standard growth inhibition assays, carried out as previously described in [54]. Briefly, parasitemia was adjusted to 1–1.3%, with >90% rings after sorbitol synchronization. Two hundred microliters of parasite culture were plated in 96-well microplates and incubated for 48 h at 37 °C in the presence of decreasing concentrations of the tested compounds, in triplicate. Parasitemia was determined by fluorescence-assisted cell sorting (FACS). Non-infected RBCs and samples containing parasitized RBCs (including controls with DMSO as carrier solvent) were diluted in PBS to a final concentration of ~1–10 × 10^6 cells/mL. The cell suspension was stained with SYTO 11 (0.5 mM stock in DMSO, Thermo Fisher Scientific, Waltham, MA, USA), to a final concentration of 0.5 μM. Samples were analyzed in a Becton Dickinson FACSCalibur. Sample excitation was carried out using a 488-nm, air-cooled argon-ion laser at a power of 15 mW, using forward and side scatter to gate the RBC population, and SYTO 11 green fluorescence (530 nm, FITC filter) was collected in a logarithmic scale. The single-cell population was selected on a forward–side scattergram, and the green fluorescence from this population was analyzed. Parasitemia was expressed as the number of parasitized cells per 100 erythrocytes.
as §1

For data set [2], the system named is T. cruzi Tulahuen strain expressing β-galactosidase. Nature of the data set: T. cruzi primary screening at three fixed concentrations. Type of data set: cell-based. Particulars: for activity at 100 µM / activity at 1 µM / activity at 10 µM: Trypanosoma cruzi, TULAHUEN; for activity at 100 µM: read-out: Primary screening, growth inhibition values at 100 µM; for activity at 1 µM: read-out: Primary screening, growth inhibition values at 1 µM; for activity at 10 µM: read-out: Primary screening, growth inhibition values at 10 µM. The protocol:
(§4) T. cruzi parasites from the Tulahuen strain (discrete typing unit (DTU) VI) expressing β-galactosidase were maintained in culture by the infection of LLC-MK2 cells in DMEM supplemented with 2% FBS and 1% penicillin–streptomycin–glutamine (PSG), as described in [52]. When free-swimming trypomastigotes were released to the culture medium, they were centrifuged for 7 min at 2500 rpm and allowed to swim out of the pellet. Trypomastigotes were used to maintain the parasite cycle, or for the performance of the antiparasitic assays.
[…] Conditions were tested in triplicate for every concentration. Z-values varied between 0.81 and 0.92 in the different plates analyzed. Selected compounds (34.6% potential hit rate) were further analyzed via standard growth inhibition assays. The Z-values of dose–response assays correlated with those previously reported. For both assays, Vero cells and trypomastigotes from the Tulahuen T. cruzi strain expressing β-galactosidase were harvested, centrifuged, and resuspended in DMEM without phenol red supplemented with 1% PSG, 2% FBS, 1 mM sodium pyruvate, and 25 mM HEPES. Vero cells and trypomastigotes were counted, diluted at a concentration of 1 × 10^6 cells/mL each, and mixed 1:1 (v/v). Then, 100 μL of that mixture was added per well to the plates already containing the compounds. Each well contained 50,000 host cells and 50,000 parasites, i.e., multiplicity of infection (MOI) = 1. BNZ was used as control of maximal drug growth inhibition in each round, whereas each plate contained its own negative control (maximum parasite growth; Vero cells plus parasites without drugs) and positive control (minimum parasite growth; trypomastigote forms alone marking an enzymatic zero time or baseline galactosidase activity). After four days at 37 °C, 50 µL of a PBS solution containing 0.25% NP40 and 500 µM chlorophenol red-β-D-galactopyranoside (CPRG) substrate were added per well [32]. Plates were incubated at 37 °C for 4 h, and their absorbance read out at 590 nm using an Epoch Gene5 spectrophotometer.
as §1

In data set [3] the test system is P. falciparum 3D7. Briefly: P. falciparum primary screening at three fixed concentrations. The following applies: average of at least three experiments; for activity at 1 µM / activity at 10 µM / activity at 100 µM: Plasmodium falciparum, read-out: Primary screening, parasite growth relative to the negative control; for activity at 1 µM: 3D7, compound at 1 µM; for activity at 10 µM: 3D7, compound at 10 µM; for activity at 100 µM: 3D7, compound at 100 µM. Type of data set: cell-based. The protocol:
as §2
as §3, with “P. falciparum growth was primarily analyzed under 3 different concentrations (100, 10, and 1 mM) of the 81 compounds.” left out
as §1

Data set [4] concerns T. cruzi Tulahuen strain expressing β-galactosidase. Nature of the data set: anti-T. cruzi dose-response growth inhibition assay (Vero cells plus trypomastigotes, CPRG readout). Type of data set: cell-based. Particulars: Vero cells plus trypomastigotes, MOI 1, four days; mean (SD); read-out: T. cruzi IC50 a (anti-T. cruzi assay). How it is done:
as §4
T. cruzi growth was primarily analyzed under three different concentrations ([…]) of the 81 compounds. Conditions were tested in triplicate for every concentration. Z-values varied between 0.81 and 0.92 in the different plates analyzed. Selected compounds (34.6% potential hit rate) were further analyzed via standard growth inhibition assays. The Z-values of dose–response assays correlated with those previously reported. For both assays, Vero cells and trypomastigotes from the Tulahuen T. cruzi strain expressing β-galactosidase were harvested, centrifuged, and resuspended in DMEM without phenol red supplemented with 1% PSG, 2% FBS, 1 mM sodium pyruvate, and 25 mM HEPES. Vero cells and trypomastigotes were counted, diluted at a concentration of 1 × 10^6 cells/mL each, and mixed 1:1 (v/v). Then, 100 μL of that mixture was added per well to the plates already containing the compounds. Each well contained 50,000 host cells and 50,000 parasites, i.e., multiplicity of infection (MOI) = 1. BNZ was used as control of maximal drug growth inhibition in each round, whereas each plate contained its own negative control (maximum parasite growth; Vero cells plus parasites without drugs) and positive control (minimum parasite growth; trypomastigote forms alone marking an enzymatic zero time or baseline galactosidase activity). After four days at 37 °C, 50 µL of a PBS solution containing 0.25% NP40 and 500 µM chlorophenol red-β-D-galactopyranoside (CPRG) substrate were added per well [32]. Plates were incubated at 37 °C for 4 h, and their absorbance read out at 590 nm using an Epoch Gene5 spectrophotometer.
as §1

The test system of data set [5] is T. cruzi intracellular amastigotes. Briefly: Antiamastigote growth inhibition assay. Type of data set: cell-based. Particulars: intracellular amastigotes in Vero cells; mean (SD); read-out: T. cruzi IC50 b (antiamastigote assay). The protocol: Vero cells were seeded in T-175 flasks (5 × 10^6 cells per flask) in DMEM supplemented with 1% penicillin–streptomycin and 10% FBS, and cultured for 24 h. Then, cells were washed once with PBS, and free-swimming trypomastigotes (1 × 10^7 trypomastigotes per flask; MOI = 1) in assay medium were added and allowed 18 h to infect. After that, infected cell monolayers were washed with PBS and detached. Cells were counted and diluted to a concentration of 5 × 10^5 cells per mL, before adding 100 µL per well to test plates already containing the drugs dispensed as described above. In all cases, we included BNZ as control drug, and each plate contained its own negative (Vero cells and parasites) and positive (Vero cells) controls.
as §1

Setting [6] is: Plasmodium falciparum, 3D7, 48 h.
Where [7] appears, read: compound at 1 µM, average of at least three independent experiments.
[8] abbreviates: compound at 10 µM, average of at least three independent experiments.

Consider `COc1ccccc1-n1cc(COc2ncnc3c2nc(-c2ccccc2)n3N(C)C)nn1` [Compound 33], for which, in the data set with Vero cells, the “Vero Cells TC50” value was >300 µM. Besides, the IC50 with P. falciparum 3D7 [1] was 19.2 µM; with P. falciparum 3D7 [1] (setting [6]) it was ~20 µM. Also, the activity at 100 µM in data set [2] was 21.5%; with P. falciparum 3D7 [3], 22.5%. Further, the activity at 1 µM stood at 91.5% in data set [2] (setting [7]) and 96.3% with P. falciparum 3D7 [3]. Moreover, the activity at 10 µM is 63.3% in data set [2] (setting [8]) and 85.4% in the data set with P. falciparum 3D7 [3].
As for `c1ccc(-c2nc3c(OCc4cn(Cc5cscn5)nn4)ncnc3n2N2CCCCC2)cc1` [Compound 76], the “Vero Cells TC50” value in the data set on Vero cells is reported as >500 µM. Further, the IC50 was 18.3 µM with P. falciparum 3D7 [1] and ~20 µM in the data set with P. falciparum 3D7 [1] (setting [6]). Moreover, the activity at 100 µM is 49.8% in data set [2] and 15.2% in the data set with P. falciparum 3D7 [3]. In addition, the activity at 1 µM in data set [2] (setting [7]) was 89.4%; with P. falciparum 3D7 [3], 95.7%. Moreover, the figures for the activity at 10 µM (in data set [2] (setting [8]); with P. falciparum 3D7 [3]) were 88.2% and 84.3%, respectively.
For the molecule `CN1CCN(n2c(-c3ccccc3)nc3c(OCc4cn(Cc5cscn5)nn4)ncnc32)CC1` [Compound 84], the “Vero Cells TC50” value in the data set with Vero cells is on record as >70 µM. Moreover, the IC50 in the data set with P. falciparum 3D7 [1] worked out at 28 µM. Also, in data set [2] (setting [7]), the “Primary screening, growth inhibition values at 1 µM” value is 93.615. Further, the “Primary screening, growth inhibition values at 10 µM” value in data set [2] (setting [8]) turned out to be 93.94. The “Primary screening, parasite growth relative to the negative control” value is on record as 96.34% in the data set on P. falciparum 3D7 [3] (compound at 1 µM), 88.61% in the data set on P. falciparum 3D7 [3] (compound at 10 µM) and 13.94% in the data set with P. falciparum 3D7 [3] (compound at 100 µM).
Turning to `COc1cccc(-n2cc(COc3ncnc4c3ncn4C(C)(C)C)nn2)c1` [Compound 88], the “Vero Cells TC50” value in the data set with Vero cells was >180 µM. Further, the IC50 was determined as 12.7 µM in data set [4], 65.3 µM with P. falciparum 3D7 [1] and 35.4 µM in data set [5]. Moreover, the “Primary screening, parasite growth relative to the negative control” value in the data set on P. falciparum 3D7 [3] (compound at 1 µM) amounted to 92.13%; in the data set on P. falciparum 3D7 [3] (compound at 10 µM), 81.69%; with P. falciparum 3D7 [3] (compound at 100 µM) it was 21.43%.
As for `C#CCOc1ncnc2c1ncn2N1CCN(C)CC1` [Compound 93], the “Vero Cells TC50” value with Vero cells is reported as >2000 µM. Also, the IC50 in data set [4] worked out at 1.42 µM; in data set [5] it was 218 µM. For the same molecule, the “Primary screening, parasite growth relative to the negative control” value in the data set with P. falciparum 3D7 [3] (compound at 1 µM) amounted to 107.86%; with P. falciparum 3D7 [3] (compound at 10 µM), 104.00%; in the data set on P. falciparum 3D7 [3] (compound at 100 µM), 105.52%.
Take `COc1cccc(-n2cc(COc3ncnc4c3ncn4N3CCN(C)CC3)nn2)c1` [Compound 94]: the “Vero Cells TC50” value in the data set on Vero cells is on record as >60 µM. Further, the IC50 in data set [4] came to 0.92 µM; in data set [5] it was 75.1 µM. Also, the “Primary screening, parasite growth relative to the negative control” value is 128.84% in the data set on P. falciparum 3D7 [3] (compound at 1 µM), 125.18% in the data set on P. falciparum 3D7 [3] (compound at 10 µM) and 104.00% with P. falciparum 3D7 [3] (compound at 100 µM).
